Laboratory results as given in patent publication US20230303503A1, “CELL ACTIVATABLE IRON CHELATORS” (BOARD OF REGENTS, THE UNIVERSITY OF TEXAS SYSTEM, priority 2020, published 2023).
Values joined by “and” are separate entries in the source; they are usually repeats but may differ in a detail not shown here. Identical values can stand only once. Like-named read-outs stand apart in the source and are kept apart here.

Assays:
[1] = Behaviour in aqueous media (solubility, aggregation, DLS); type: physicochemical; details: water; neutral pH for ExJade
Protocol: Several new ExJade derivatives, designed to control solubility and modulate the intrinsic electronic features, namely ExPh, ExPh-OMe, ExH, ExBT, ExBT-OMe and ExPhos, were prepared. […] In marked contrast to what is seen in aqueous environments, solutions of ExPh and ExBT in most common organic solvents display no appreciable emission.
No significant fluorescence quenching was seen upon changing the solvents in which ExPh-OMe and ExBT-OMe were analyzed - DMSO, PhMe, THF, DCM, acetone, MeCN, MeOH and PBS. […] This putative ICT phenomenon has been observed in structurally similar N-phenylpyrrole analogues (Yoshihara et al., 2005; Yoshihara et al., 2003). Further support for the proposed aqueous induced aggregation mechanism invoked in the case of ExPh and […] came from studies of the parent system, ExJade.

[2] = tested on: A549 human lung cancer cell line; assay: MTT cell viability / antiproliferative assay in A549 cells; type: cell-based; details: for IC50: A549, MTT, triplicate
Protocol: Cell culture. A549 cells (ATCC® CCL-185™) were maintained in growth medium consisting of RPMI 1640 Medium (Sigma-Aldrich, MO, USA) supplemented with 10% fetal bovine serum (Sigma-Aldrich, MO, USA) and 2% Penicillin/Streptomycin (Sigma-Aldrich, MO, USA). Cells were kept in a humidified atmosphere of 5% CO2 and 95% air at 37° C. and were split when they reached 90% confluency.
Cell viability assay. 1500 cells per well were plated on a 96-well plate (12 rows × 8 wells per row) in 100 µL growth medium and kept at 37° C. under 5% CO2. 24 h after seeding, cells were treated with another 100 µL growth medium containing different concentrations of the drug under evaluation. Cells in each row of the 96-well plate were treated with the same concentration of drug and the first two rows were kept as control and treated with growth medium alone. The highest drug concentration evaluated was 250 µM and lower concentrations were produced via serial dilution by a factor of 3. Treated cells were kept at 37° C. under 5% CO2 for 72 h. Then, 50 µL RPMI 1640 Medium without fetal bovine serum and penicillin/streptomycin containing 3 mg/mL 3-(4,5-dimethylthiazol-2-yl)-2,5-diphenyltetrazolium bromide (Sigma-Aldrich, MO, USA) was added to each well and cells were kept at 37° C. under 5% CO2 for another 4 h. Subsequently, the medium was removed, and the precipitated formazan dye taken up in DMSO (50 µL). The absorbance of the solutions was measured at 540 nm with an M5 microplate reader (Molecular Devices, USA) and 0.33 absorbance units were subtracted from all wells (this absorbance value corresponds to wells containing DMSO without dye - control). The absorbance of each row of wells were averaged and were directly proportional to the number of viable cells after drug treatment.
The antiproliferative activity of compounds 1-10 was evaluated in A549 lung cancer cells, a cell line with a well- established sensitivity to iron imbalance (Loza-Rosas et al., 2017; Ohara et al., 2013). For each compound, cellular proliferation profiles were produced via a standard MTT (3-(4,5-dimethylthiazol-2-yl)-2,5-diphenyltetrazolium bromide) assay for exposure times of 72 h and 24 h, respectively. From these proliferation profiles, averaged IC50 values and Hill slope (HS) parameters were determined via linear regression analysis.

[3] = tested on: MRSA biofilms; assay: Live/dead biofilm viability assay on glass slides; type: cell-based, Staphylococcus aureus; details: CFP-SUL 16 µg/mL alone or combined with chelator 64 µg/mL
Protocol: (§1) FIGS. 11A & 11B show biofilm experiments. (FIG. 11A) Evaluation of CFP-SUL (cefoperazone-sulbactam; 16 µg/mL), CFP-SUL@ExBT (16 µg/mL@64 µg/mL), CFP-SUL@deferasirox (16 µg/mL@64 µg/mL), and CFP-SUL@ExPhos (16 µg/mL@64 µg/mL) for the treatment of P. aeruginosa and MRSA biofilms. Processed 3D images of P. aeruginosa and MRSA biofilms on glass slides using the live/dead biofilm viability assay. Distributions of PI-stained (red, dead bacteria) and Syto9-stained (green, live bacteria) (FIG. 11B) P. aeruginosa and MRSA biovolumes and CFU counts (purple dots) for the above groups. Biovolume data are mean values of three independent replicates.
(§2) Biofilm experiments were carried out on glass slides with both Pseudomonas aeruginosa and MRSA. The therapeutic performance of the broad-spectrum antibiotic cefoperazonesulbactam (CFP-SUL) (Sheu et al., 2020) was evaluated on its own and in combination with deferasirox, ExBT, and ExPhos using the live/dead biofilm caption viability assay (propidium iodide (PI): dead, red; Syto9: live, green).

[4] = tested on: Pseudomonas aeruginosa (ATCC 27853); assay: Bacterial growth inhibition; type: cell-based
Protocol: (§3) Similarly, the bacterial inhibitory effect of the present ExJade derivatives was then evaluated. Initial tests were focused on two Gram-negative, ESKAPE bacteria (Mulani et al., 2019), Pseudomonas aeruginosa (ATCC 27853) and Klebsiella pneumoniae (ATCC 13883). Arbekacin, an FDA-approved aminoglycoside-based antibiotic, was used as positive control.
(§4) This observation confirms the Fe(III) chelation dependent inhibitory activity. Due to the Fe(III) chelation dependent nature of the ExJade derivatives and to illustrate their potential “real life” utility, the inhibitory activity of ExBT and ExPhos against MRSA were evaluated in a blood containing medium consisting of agar and defibrillated amniotic blood (Filipowicz et al., 2003).

[5] = tested on: P. aeruginosa biofilms; assay: Live/dead biofilm viability assay on glass slides; type: cell-based, Pseudomonas aeruginosa; details: CFP-SUL 16 µg/mL alone or combined with chelator 64 µg/mL
Protocol: as §1, §2

[6] = tested on: methicillin-resistant Staphylococcus aureus (MRSA, ATCC 43300); assay: Inhibition of drug-resistant bacteria (colonies, cell viability); type: cell-based; details: agar and defibrillated amniotic blood
Protocol: Cell viability of (FIG. 4B) MRSA (ATCC 43300) and (FIG. 4C) VRE (ATCC 51299) before and after treatment with ExBT, ExJade, ExPhos, and arbekacin (15 µM).
More importantly, two clinically relevant gram-positive, drug-resistant bacteria, methicillin-resistant Staphylococcus aureus (MRSA, ATCC 43300) and vancomycin-resistant Enterococcus faecalis (VRE, ATCC 51299) with high ALP activity were then used to evaluate further the therapeutic potential of these ExJade derivatives. Again, arbekacin was used as a positive control. […] The observed inhibition of VRE is of particular significance since there are few clinically available treatments for this multidrug-resistant bacterium.
as §4

[7] = tested on: Klebsiella pneumoniae (ATCC 13883); assay: Bacterial growth inhibition; type: cell-based
Protocol: as §3

[8] = tested on: alkaline phosphatase (ALP); assay: Alkaline phosphatase response of the pro-chelator (fluorescence); type: biochemical; details: 15 µM, ALP 0-64 U
Source text: This ratiometric change in fluorescence emission was ascribed to the gradual and stepwise dephosphorylation of ExPhos, which was confirmed by LC-MS analysis. ExPhos solutions exposed to ALP (64 U ALP) were subsequently treated with increasing concentrations of Fe(III) (as the FeCl3 salt). […] Based on these findings, we considered it likely that ExPhos could serve as an ALP-responsive Fe(III) pro-chelator.
Recently, protected versions of known metal chelators (“prochelators”) have been explored in an effort to avoid premature metal chelation (Wang et al., 2016). The bis-phosphate ester ExPhos was thus prepared as a phosphatase-responsive fluorescent pro-chelator that would permit detection of a disease-based biomarker (i.e., alkaline phosphatase, ALP) (Zhang et al., 2020; McCullough and Barrios, 2020; Haarhaus et al., 2017; Gwynne et al., 2019). […] Timedependent changes in fluorescence emission intensity were also seen. The limit of detection (LoD) was calculated to be 0.016 75 U (measurements performed after 5 min of incubation). The ratiometric change in the fluorescence emission was ascribed to the gradual and stepwise (bis-phosphate ester to monophosphate ester to bisphenol) dephosphorylation of ExPhos (as confirmed by LCMS analyses). This sequential conversion leads to a rapid decrease in the blue emission and a slow increase in the green emission. […]

[9] = 24 h incubation, read-out: IC50 (24 h)
[10] = 72 h incubation, read-out: IC50 (72 h)

Structure (SMILES): O=C(O)c1ccc(-n2nc(-c3ccccc3O)nc2-c2ccccc2O)cc1 [Compound 1, deferasirox, reference compound]
- solubility in aqueous media [1]: good solubility
- cytotoxicity when cells were supplemented with FeCl3 ([2]; A549, 50 µM FeCl3, 72 h of exposure): no longer produced any observable cytotoxicity
- IC50 ([2]; Homo sapiens, 24 h incubation, read-out: IC50 (24 h)): > 50 µM
- IC50 ([2]; Homo sapiens, 72 h incubation, read-out: IC50 (72 h)): 8.5 µM

Structure (SMILES): COC(=O)c1ccc(-n2nc(-c3ccccc3O)nc2-c2ccccc2O)cc1 [Compound 2]
- IC50 [2, 9]: 21 ± 3 µM
- IC50 [2, 10]: 1.6 µM and 2.5 µM

Structure (SMILES): O=C(c1ccc(-n2nc(-c3ccccc3O)nc2-c2ccccc2O)cc1)N1CCOCC1 [Compound 4]
- IC50 [2, 9]: > 50 µM
- IC50 [2, 10]: 2.6 µM and 3.6 µM

Structure (SMILES): Oc1ccccc1-c1nc(-c2ccccc2O)n(-c2ccc(-c3nc4ccccc4s3)cc2)n1 [ExBT]
- solubility in aqueous media [1]: insoluble aggregates
- antibiofilm effect [3]: enhanced
- inhibition of bacterial growth [4]: capable of inhibiting the growth
- antibiofilm effect [5]: enhanced
- inhibitory activity in blood containing medium [6]: remaining strong
- inhibition of bacterial growth [7]: capable of inhibiting the growth

Structure (SMILES): Oc1ccccc1-c1nc(-c2ccccc2O)n(-c2ccccc2)n1 [ExPh]
- solubility in aqueous media [1]: insoluble aggregates
- inhibition of bacterial growth [4]: capable of inhibiting the growth
- inhibition of bacterial growth [7]: capable of inhibiting the growth

Structure (SMILES): O=P(O)(O)Oc1ccccc1-c1nc(-c2ccccc2OP(=O)(O)O)n(-c2ccc(-c3nc4ccccc4s3)cc2)n1 [ExPhos]
- antibiofilm effect [3]: enhanced
- change in fluorescence emission in the presence of ALP [8]: dose dependent change
- inhibition of bacterial growth [4]: capable of inhibiting the growth
- antibiofilm effect [5]: enhanced
- inhibitory activity in blood containing medium [6]: remaining strong
- inhibition of bacterial growth [7]: capable of inhibiting the growth
- cytotoxicity towards A549 cells ([2]; pro-chelator, in words): no significant cytotoxicity

Structure (SMILES): O=C1[O][Pt]2([NH][C@@H]3CCCC[C@H]3[NH]2)[O]C1=O [Ox-Pt, oxaliplatin, reference compound]
- IC50 [2, 9]: > 50 µM
- IC50 [2, 10]: 0.5 ± 0.1 µM
